Data as given in ChEMBL document CHEMBL4715853 (J Med Chem, 2020).

Legend:
SARS-CoV-2 [1] = test: Antiviral activity against 2019-nCoV BetaCoV/Wuhan/WIV04/2019 infected in African green monkey VeroE6 cells assessed as reduction in viral yield preincubated with virus for 1 hr followed by cell infection and […] by qRT-PCR method; assay type: functional, organism-based; details: Severe acute respiratory syndrome coronavirus 2, BetaCoV/Wuhan/WIV04/2019, Vero C1008
[2] = Selectivity index, ratio of CC50 for African green monkey Vero E6 cells to EC50 for 2019-nCoV Beta CoV/Wuhan/WIV04/2019 infected in African green monkey Vero E6 cells; assay type: toxicity, Vero C1008; details: read-out: Ratio CC50/EC50
[3] = Cytotoxicity against African green monkey Vero E6 cells by the CCK8 assay; assay type: cell-based, Vero C1008; details: chlorocebus sabaeus
Zaire ebolavirus [4] = test: Antiviral activity against Zaire Ebola virus infected in African green monkey Vero E6 cells measured after 5 days by immunofocus assay; assay type: functional, organism-based; details: Vero C1008, 120 h
SARS-CoV-2 [5] = test: Antiviral actvity against SARS-CoV2 infected in human assessed as latency time to pyrexia reduction at 1600 mg administered twice on day 1 and 600 mg BID for 7 days; assay type: functional, Severe acute respiratory syndrome coronavirus 2; details: time 7 day
Zaire ebolavirus [6] = test: Antiviral activity against Zaire Ebola virus infected in IFNAR-/- C57BL/6 mouse assessed as mouse survival at 300 mg/kg, po administered twice daily starting from day 6 post infection until day 13 post infection and measured at the end of 3 weeks; assay type: functional
SARS-CoV-2 [7] = test: Antiviral actvity against SARS-CoV2 infected in human assessed as improvement rate of chest at 1600 mg, po administered twice on day 1 and 600 mg BID on day 2 to 14 and measured after 14 days by computed tomography; assay type: functional, Severe acute respiratory syndrome coronavirus 2; details: time 14 day
[8] = Toxicity in human infected with SARS-CoV2 assessed as adverse events at 1600 mg, po administered twice on day 1 and 600 mg BID on day 2 to 14 and measured after 14 days; assay type: organism-based; details: in vivo, 336 h, time 14 day
SARS-CoV-2 [9] = test: Antiviral actvity against SARS-CoV2 infected in human assessed as latency time to cough relief at 1600 mg administered twice on day 1 and 600 mg BID for 7 days; assay type: functional, Severe acute respiratory syndrome coronavirus 2; details: time 7 day
[10] = Inhibition of SARS Coronavirus helicase pp1ab domain assessed as reduction in helicase activity using DT20Cy3/Release BHQ oligomers by FRET-based assay; design: species or system Severe acute respiratory syndrome-related coronavirus
[11] = Cytotoxicity against Rhesus macaque FRhK-4 cells by MTT assay; assay type: cell-based, Macaca mulatta; details: rhesus monkey
SARS-CoV [12] = test: Antiviral actvity against SARS-CoV GZ50 infected in Rhesus macaque FRhK-4 cells assessed as reduction in virus-induced cytopathic effect incubated for 24 to 48 hrs by phase-contrast microscopy; assay type: functional, organism-based; details: Severe acute respiratory syndrome-related coronavirus, GZ50, FRhK-4
[13] = Inhibition of SARS Coronavirus helicase pp1ab domain assessed as reduction in ATPase activity by phosphomolybdate-malachite green assay; design: species or system Severe acute respiratory syndrome-related coronavirus
[14] = Cytotoxicity against African green monkey Vero E6 cells by the MTS assay; assay type: cell-based, Vero C1008; details: chlorocebus sabaeus
[15] = Cytotoxicity against African green monkey Vero E6 cells incubated for 3 days by the MTS assay; assay type: cell-based, Vero C1008; details: chlorocebus sabaeus, time 3 day
SARS-CoV [16] = test: Antiviral activity against SARS-CoV isolate Frankfurt-1 infected in African green monkey Vero E6 cells incubated for 3 days; assay type: functional, organism-based; details: Severe acute respiratory syndrome-related coronavirus, Frankfurt 1, Vero C1008, 72 h
Human coronavirus OC43 = test: Antiviral activity against wild type HCoV-OC43 infected in BHK-21 cells incubated for 72 hrs by RT-PCR method; assay type: functional, cell-based; details: Betacoronavirus 1, BHK-21, 72 h
[17] = Cytotoxicity against human Huh-7 cells incubated for 1 hr by MTS assay; assay type: cell-based
SARS-CoV [18] = test: Antiviral activity against SARS-CoV isolate Frankfurt-1 infected in African green monkey Vero E6 cells incubated for 3 days by MTS assay; assay type: functional, organism-based; details: Severe acute respiratory syndrome-related coronavirus, Frankfurt 1, Vero C1008, 72 h

SMILES: NC(=O)c1nc(F)cnc1O
- IC50 (SARS-CoV-2 [1]): 61.8 µM
- selectivity ratio [2]: > 6.46
- CC50 [3]: > 400 µM
- IC50 (Zaire ebolavirus [4]): 67 µM
- Time (SARS-CoV-2 [5]): 1.7 days
- Activity (Zaire ebolavirus [6]): 100%
- Activity (SARS-CoV-2 [7]): 91.4%
- Activity [8]: 11.4%
- Time (SARS-CoV-2 [9]): 1.75 days

SMILES: Cc1ncc(CO)c(C23OC4(O)CC(O)(CC(O)(C4)O2)O3)c1O
- IC50 [10]: 3 µM
- CC50 [11]: 390 µM
- EC50 (SARS-CoV [12]): < 10 µM
- IC50 [13]: 2.3 µM

SMILES: CCN(CC)CCCC(C)Nc1ccnc2cc(Cl)ccc12 (stereo unspecified) [CHLOROQUINE]
- CC50 [14]: 261 µM
- CC50 at 72 h [15]: > 128 µM
- EC50 (SARS-CoV-2 [1]): 1.13 µM
- CC50 [3]: > 100 µM
- EC50 (SARS-CoV [16]): 4.1 µM
- EC50 (Human coronavirus OC43): 0.33 µM
- CC50 at 1 h [17]: > 50 µM
- IC50 (SARS-CoV [18]): 8.8 µM
